Holding throughout (test): in vitro
The target of data set [1] is T1, CYP3A2 (Rattus norvegicus, UniProt P05183).
T1 sequence (P05183 1-504): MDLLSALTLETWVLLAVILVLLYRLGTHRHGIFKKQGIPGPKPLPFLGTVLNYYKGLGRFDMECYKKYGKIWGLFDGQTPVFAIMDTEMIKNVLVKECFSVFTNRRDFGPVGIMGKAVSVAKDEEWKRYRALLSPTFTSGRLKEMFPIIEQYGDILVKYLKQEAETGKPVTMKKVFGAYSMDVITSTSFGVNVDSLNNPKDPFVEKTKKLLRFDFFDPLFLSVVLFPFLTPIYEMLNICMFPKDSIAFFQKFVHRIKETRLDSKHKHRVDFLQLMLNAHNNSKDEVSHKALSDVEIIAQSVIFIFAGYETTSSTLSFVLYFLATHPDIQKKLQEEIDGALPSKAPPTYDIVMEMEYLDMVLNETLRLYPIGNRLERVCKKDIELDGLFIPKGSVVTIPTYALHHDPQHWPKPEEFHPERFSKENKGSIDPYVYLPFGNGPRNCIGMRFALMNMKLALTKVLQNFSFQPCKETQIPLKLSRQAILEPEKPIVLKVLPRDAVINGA
The conditions noted are these: liver microsomes, pH 7.4, probe midazolam (5 μM).

Data set [2] deals with T2, CYP1A2 (Homo sapiens, UniProt P05177).
T2 sequence (P05177 1-516): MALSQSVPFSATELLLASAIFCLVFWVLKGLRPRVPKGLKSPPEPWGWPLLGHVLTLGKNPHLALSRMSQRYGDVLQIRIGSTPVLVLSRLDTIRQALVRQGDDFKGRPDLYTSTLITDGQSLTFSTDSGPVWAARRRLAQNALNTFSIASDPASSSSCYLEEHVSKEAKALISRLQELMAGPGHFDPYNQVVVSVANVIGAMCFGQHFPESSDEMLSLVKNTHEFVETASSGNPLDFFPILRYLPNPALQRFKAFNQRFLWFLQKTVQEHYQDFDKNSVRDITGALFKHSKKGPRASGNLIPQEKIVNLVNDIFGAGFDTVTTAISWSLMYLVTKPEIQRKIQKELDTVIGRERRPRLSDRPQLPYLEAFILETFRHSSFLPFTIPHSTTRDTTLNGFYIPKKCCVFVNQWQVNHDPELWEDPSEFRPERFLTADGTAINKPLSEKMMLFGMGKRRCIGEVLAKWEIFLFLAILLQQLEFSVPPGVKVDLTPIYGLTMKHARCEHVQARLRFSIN
The conditions noted are these: microsomes, pH 7.4.

The target of data set [3] is T3, CYP1A2 (Rattus norvegicus, UniProt P04799).
T3 sequence (P04799 1-513): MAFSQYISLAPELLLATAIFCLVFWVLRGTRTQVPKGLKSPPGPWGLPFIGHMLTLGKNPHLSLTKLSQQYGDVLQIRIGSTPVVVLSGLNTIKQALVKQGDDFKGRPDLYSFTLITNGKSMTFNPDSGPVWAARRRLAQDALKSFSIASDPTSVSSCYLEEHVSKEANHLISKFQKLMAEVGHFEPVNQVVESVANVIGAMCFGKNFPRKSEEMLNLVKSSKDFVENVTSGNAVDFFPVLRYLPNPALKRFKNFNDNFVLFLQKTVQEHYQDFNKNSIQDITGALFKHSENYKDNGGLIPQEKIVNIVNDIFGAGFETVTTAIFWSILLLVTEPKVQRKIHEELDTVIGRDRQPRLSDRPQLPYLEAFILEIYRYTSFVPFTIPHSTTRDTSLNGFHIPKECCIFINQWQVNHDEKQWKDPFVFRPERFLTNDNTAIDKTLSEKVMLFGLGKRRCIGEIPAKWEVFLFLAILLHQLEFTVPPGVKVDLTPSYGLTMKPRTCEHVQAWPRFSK
The conditions noted are these: liver microsomes, pH 7.4, probe phenacetin (50 μM).

For data set [4], the target named is T4, CYP2C6 (Rattus norvegicus, UniProt P05178).
T4 sequence (P05178 1-490): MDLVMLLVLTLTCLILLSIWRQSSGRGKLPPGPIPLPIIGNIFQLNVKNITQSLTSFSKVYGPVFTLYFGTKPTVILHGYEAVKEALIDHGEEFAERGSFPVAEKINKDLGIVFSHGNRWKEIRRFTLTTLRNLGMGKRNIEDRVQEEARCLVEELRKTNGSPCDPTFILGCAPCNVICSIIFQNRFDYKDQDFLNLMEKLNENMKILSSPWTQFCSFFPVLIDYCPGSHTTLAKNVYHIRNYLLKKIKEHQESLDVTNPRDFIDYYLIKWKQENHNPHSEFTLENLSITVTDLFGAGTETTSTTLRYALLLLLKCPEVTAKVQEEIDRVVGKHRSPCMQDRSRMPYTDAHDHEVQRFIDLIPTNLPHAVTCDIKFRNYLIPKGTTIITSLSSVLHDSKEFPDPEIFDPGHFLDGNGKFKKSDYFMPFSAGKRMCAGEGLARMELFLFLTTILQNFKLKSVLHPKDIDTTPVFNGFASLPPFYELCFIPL
The conditions noted are these: liver microsomes, pH 7.4, probe diclofenac sodium (20 μM).

Drawing on publication PMC9981942, “Pharmacokinetics and tissue distribution of Ramulus Mori (Sangzhi) alkaloids in rats and its effects on liver enzyme activity” (Frontiers in Pharmacology, 2023), this text covers inhibition for three compounds.

Take `CC(=O)N1CCN(c2ccc(OCC3COC(Cn4ccnc4)(c4ccc(Cl)cc4Cl)O3)cc2)CC1` (stereo not shown) [ketoconazole]: the inhibition at 5 min, 1 μM in data set [1] stood at 76.4%.

`Cc1nc2c([nH]1)c(=O)n(C)c(=O)n2Cc1ccco1` [furafylline] yielded an inhibition at 30 min, 10 μM in data set [2] of 71.8%. In data set [3], this compound displayed an inhibition at 30 min, 50 μM of 66.3%.

For `Nc1ccc(S(=O)(=O)Nc2ccnn2-c2ccccc2)cc1` [sulfaphenazole], the inhibition at 10 min, 50 μM in data set [4] stood at 88%.
